According to patent US11440922B2, “Heterocyclylmethylidene derivatives and their use as modulators of mGluR5 receptors” (Recordati Industria Chimica e Farmaceutica S.p.A., priority 2017, dated 2022):

Legend:
human mGluR5 receptor = human mGluR5 receptor (Homo sapiens (Human), UniProt P41594); assay: Radioligand binding assay at cloned human mGluR5 receptor subtype ([3H]MPEP); details: 4 nM [3H]MPEP, CHO T-REx h-mGluR5 cells, 60 min at 25° C.; read-out: mGlu5 Ki
Description: (§1) Cell lines stably transfected were generated using inducible expression vectors encoding human mGlu5 receptor using the Tetracycline-Regulated Expression system (T-REx™ system, Invitrogen, Life Technologies). Human mGluR5 open reading frame (ORF), comprehensive of the stop codon, were cloned into the pcDNA4/TO/myc-His™ A vector, carrying the TetO2. The insertion site was HindIII-PstI for mGluR5 receptors. The obtained constructs were then transfected into the T-REx CHO™ cell line using the FuGENE protocol (Roche); the CHO T-REx™ cell line stably expresses the Tet repressor (from the pcDNA6/TR plasmid) under the selection of blasticidin, 10 μg/ml. Stable clones were obtained selecting with zeocin 1 mg/ml and maintaining in ULTRA CHO medium (LONZA) supplemented with dialyzed FBS, zeocin, blasticidine, at 37° C., in an atmosphere of 5% CO2. The expression of h-mGluR5 receptors was de-repressed with 1 μg/ml tetracycline for 18 h before binding experimentation, while the expression of h-mGluR5 receptors was derepressed respectively with 3 ng/ml and 10 ng/ml tetracycline for 18 h before calcium fluorescence experimentation.
Radioligand Binding Assay at Cloned Human mGluR5 Receptor Subtype
Affinity at transmembrane glutamate metabotropic cloned human mGluR5 receptor was evaluated according to the methods of Anderson (Anderson et al., J Pharmacol. Exp. Ther., (2002), Vol. 303(3), pp. 1044-51), with some modifications. Human cloned mGluR5 was obtained by re-suspending CHO T-REx h-mGluR5 cells (50 μg/well) in 20 mM HEPES, 2 mM MgCl2, 2 mM CaCl2, pH 7.4, that then were incubated in a final volume of 1 ml for 60 min at 25° C. with 4 nM [^3H]MPEP in the absence or presence of competing drugs. Non-specific binding was determined in the presence of 10 μM MPEP. The incubation was stopped by addition of cold Tris buffer pH 7.4 and rapid filtration through 0.2% polyethyleneimine pretreated Filtermat 1204-401 (Perkin Elmer) filters. The filters were then washed with cold buffer and the radioactivity retained on the filters was counted by liquid scintillation spectrometry (Betaplate 1204 BS-Wallac).
(§2) The inhibition curves of the tested compounds at cloned mGluR5 subtypes were determined by nonlinear regression analysis using software Prism 4.0 (Graphpad, San Diego, Calif.). The IC50 values and pseudo-Hill slope coefficients were estimated by the program. The values for the inhibition constant, Ki, were calculated according to the equation Ki=IC50/(1+[L]/Kd), where [L] is the concentration of radioligand and Kd is the equilibrium dissociation constant of the radioligand-receptor complex (Cheng et al., Biochem. Pharmacol. (1973), Vol. 22, pp. 3099-3108).

human mGlu5 receptor [1] = target: T1, human mGlu5 receptor (Homo sapiens (Human), UniProt P41594); assay: Calcium fluorescence measurements, antagonist potency (negative allosteric modulator activity); format: cell-based; details: EC80 of quisqualate as agonist, compounds applied 10 minutes before agonist
Description: as §1
(§3) Cells were seeded into black-walled, clear-bottom, 96-well plates at a density of 80000 cell/well, in RPMI (without Phenol Red, without L-glutamine; Gibco LifeTechnologies, CA) supplemented with 10% dialyzed FBS. Following 18-h incubation with tetracycline, the cells were loaded with […] Ca^2+-sensitive fluorescent dye Fluo-4/AM (Molecular Probes) in Hanks' balanced saline solution (HBSS, Gibco LifeTechnologies, CA) with […] Hepes (Sigma) and 2.5 mM probenecid (Sigma), for 1 h at 37° C. The cells were washed three times with HBSS to remove extracellular dye. Fluorescence signals were measured by using the fluorescence microplate reader Flexstation III (Molecular Devices) at sampling intervals of 1.5 s for 60 s.
(§4) The antagonist potency was determined using the EC80 of the quisqualate used as agonist and the potentiation of mGlu5 activation was determined using the EC20 of the agonist (quisqualate or glutamate). The compounds were applied 10 minutes before the application of the agonist.
(§5) The negative allosteric modulator activity (expressed as IC50) and the positive allosteric modulator activity (expressed as EC50) of the compounds of the invention for the mGlu5 receptors is between 0.1 and 1000 nM.
as §2

conscious rats = assay: Effect on cystometry in conscious rats; format: in vivo, rat; details: Minimal Effective Dose that induces statistically significant increase of bladder volume capacity
Description: Male Sprague-Dawley rats [Crl:CD(SD) IGS BR] of 300-400 g b.w. supplied by Charles River Italia were used. The animals were housed with free access to food and water and maintained on a forced 12-hour-light/12-hour-dark cycle at 22-24° C. of temperature, except during the experiment. To quantify urodynamic parameters in conscious rats, cystometrographic studies were performed according to the procedure previously reported (Guarneri et al., Pharmacol. Res. Vol. 24, No. 2, pp. 175-187, 1991).
Briefly, the rats were anaesthetized by intraperitoneal administration of 3 ml/kg of Equithensin solution (pentobarbital 30 mg/kg and chloral hydrate 125 mg/kg) and placed in a supine position. An approximately 10 mm long midline incision was made in the shaved and cleaned abdominal wall. The urinary bladder was gently freed from adhering tissues, emptied and then cannulated via an incision in the bladder body, using a polyethylene cannula (0.58 mm internal diameter, 0.96 mm external diameter) which was permanently sutured with silk thread. […]
On the day of the experiment, the rats were placed in modified Bollman cages, i.e., restraining cages that were large enough to permit the rats to adopt a normal crouched posture, but narrow enough to prevent turning around. […] The intraluminal-pressure signal during infusion of saline into the bladder (cystometrogram) was continuously recorded on a polygraph (Rectigraph-8K San-ei with BM614/2 amplifier from Biomedica Mangoni) or stored on PC by data acquisition system (PowerLab, Chart 4 software, AD Instruments). From the cystometrogram, bladder volume capacity (BVC) was evaluated. […] Basal BVC value was evaluated as the mean of the values observed in the cystometrograms recorded in an initial period of 30-60 minutes. […] The bladder infusion restarted and changes in BVC were evaluated from the mean values obtained in the cystometrograms observed during 1, 2, and 3 hours after treatment. […]
Each experimental group was composed of 4-11 animals. All data were expressed as mean±standard error. […]

human mGlu5 receptor [2] = target: T1, human mGlu5 receptor; assay: Fold shift of agonist curve determination; format: cell-based; details: ratio of EC50 agonist (quisqualate or glutamate) curves in presence and in absence of test compound; compound at 1 μM
Description: as §1, §3
The PAM potency was evaluated by performing an agonist concentration response curve in the presence of the compounds. The compounds at fixed concentration (0.01 or 0.1 or 1 μM) were applied 10 minutes before the incubation of the agonist (quisqualate or glutamate) dose-response curve. The fold shift was determined as ratio of EC50 agonist curves in presence and in absence of test compound. For instance, and in particular compound 34 has a fold shift of 2.7.

human mGlu5 receptor [3] = target: T1, human mGlu5 receptor; assay: Calcium fluorescence measurements, potentiation of mGlu5 activation (positive allosteric modulator activity); format: cell-based; details: EC20 of the agonist (quisqualate or glutamate), compounds applied 10 minutes before agonist
Description: as §1, §3, §4, §5

C57/BL/6J mice = assay: Novel object recognition test in mice; format: in vivo, mouse; details: intraperitoneal route, 30 min before training, memory assessed 24 h after training
Description: Novel object memory was assessed during three sessions. This task relies on the innate tendency of a mouse to explore unfamiliar objects vs. familiar objects. Testing was performed in an open-field arena. 24 h prior to training, C57/BL/6J 5-week male mice were habituated to the arena for 10 min (session 1).
During training, mice were administered by intraperitoneal route with the vehicle or the tested compound and after 30 min they were allowed for 5 min to explore two identical objects (A+A, session 2). Long-term object memory was assessed 24 h after the completion of training during which mice were given 5 min to explore the familiar (A) or the novel (B) object (A+B, session 3). The duration of exploration (defined as the mouse's snout or forelimbs physically touching or approaching within 1 cm of an object) of familiar and novel object was measured. The amount of time spent exploring the novel object over the total time exploring both novel and familiar object in each session was used to measure object memory.
For instance, and in particular the activity of compound of Example 34, expressed as MED (Minimal Effective Dose that induces statistically significant difference of exploration of the two objects) is of 10 mg/kg. Statistical analysis of exploration time values, was performed by using a paired Student's test, which was calculated using GraphPad Prisma 4.

T1 sequence (P41594 21-1212): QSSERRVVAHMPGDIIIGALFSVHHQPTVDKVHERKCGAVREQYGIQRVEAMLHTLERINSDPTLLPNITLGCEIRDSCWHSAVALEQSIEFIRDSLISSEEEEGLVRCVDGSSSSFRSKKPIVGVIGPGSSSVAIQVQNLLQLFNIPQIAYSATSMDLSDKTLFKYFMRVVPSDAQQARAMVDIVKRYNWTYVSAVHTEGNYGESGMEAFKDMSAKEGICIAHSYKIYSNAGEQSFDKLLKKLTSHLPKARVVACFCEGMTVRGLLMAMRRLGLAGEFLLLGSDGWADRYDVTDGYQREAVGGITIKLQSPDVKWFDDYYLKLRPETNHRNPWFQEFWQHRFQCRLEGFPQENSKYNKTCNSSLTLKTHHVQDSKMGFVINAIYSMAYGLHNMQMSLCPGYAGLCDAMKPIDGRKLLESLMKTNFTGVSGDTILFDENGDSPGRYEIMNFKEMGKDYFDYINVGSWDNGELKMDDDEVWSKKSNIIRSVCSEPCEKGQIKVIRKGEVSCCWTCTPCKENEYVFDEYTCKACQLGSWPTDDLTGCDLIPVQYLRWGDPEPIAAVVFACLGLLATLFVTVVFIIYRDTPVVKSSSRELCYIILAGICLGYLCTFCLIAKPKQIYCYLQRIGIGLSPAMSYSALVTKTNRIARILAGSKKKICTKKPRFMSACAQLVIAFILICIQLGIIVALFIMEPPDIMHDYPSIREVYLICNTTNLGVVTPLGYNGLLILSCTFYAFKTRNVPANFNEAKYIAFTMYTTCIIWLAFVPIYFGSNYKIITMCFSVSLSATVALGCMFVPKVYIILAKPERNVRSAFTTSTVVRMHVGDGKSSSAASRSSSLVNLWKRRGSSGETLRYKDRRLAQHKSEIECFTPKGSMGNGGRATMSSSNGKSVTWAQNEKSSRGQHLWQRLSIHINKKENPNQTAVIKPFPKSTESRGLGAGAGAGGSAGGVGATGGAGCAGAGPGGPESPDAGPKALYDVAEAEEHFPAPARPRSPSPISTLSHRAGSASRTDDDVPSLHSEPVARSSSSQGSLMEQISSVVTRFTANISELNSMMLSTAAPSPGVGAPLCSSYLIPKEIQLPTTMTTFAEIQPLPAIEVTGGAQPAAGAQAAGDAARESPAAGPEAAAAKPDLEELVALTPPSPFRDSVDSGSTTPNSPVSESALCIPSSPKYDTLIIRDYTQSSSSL
Chain of human mGluR5 receptor (P41594 21-1212): as above

| Ki (human mGluR5 receptor) [nM] | IC50 (human mGlu5 receptor [1]) [nM] | mGlu5 Fold Shift @1 μM (human mGlu5 receptor [2]) | EC50 (human mGlu5 receptor [3]) [nM] | Structure (SMILES) | “In vivo” cystometry MED (mg/kg os) (conscious rats) [mg/kg] | MED (Minimal Effective Dose that induces statistically significant difference of exploration of the two objects) (C57/BL/6J mice) [mg/kg] |
| --- | --- | --- | --- | --- | --- | --- |
| 28.6 | 31.8 |  |  | CCOC(=O)N1CC/C(=C\C#Cc2cc(OC)ccn2)C(C)(C)C1 [Example 25, ethyl (4E)-4-[3-(4-methoxypyridin-2-yl)prop-2-yn-1-ylidene]-3,3-dimethylpiperidine-1-carboxylate] |  |  |
| 0.64 | 8.6 |  |  | CCOC(=O)N1CC/C(=C\C#Cc2cccc(C#N)c2)C(C)(C)C1 [Example 27, ethyl (4E)-4-[3-(3-cyanophenyl)prop-2-yn-1-ylidene]-3,3-dimethylpiperidine-1-carboxylate] |  |  |
| 2.12 | 37.2 |  |  | CCOC(=O)N1CC/C(=C\C#Cc2cccc(CC#N)c2)C(C)(C)C1 [Example 28, ethyl (4E)-4-{3-[3-(cyanomethyl)phenyl]prop-2-yn-1-ylidene}-3,3-dimethylpiperidine-1-carboxylate] |  |  |
| 2.93 | 13.5 |  |  | CCOC(=O)N1CC/C(=C\C#Cc2cc(C#N)ccn2)C(C)(C)C1 [Example 31, ethyl (4E)-4-[3-(4-cyanopyridin-2-yl)prop-2-yn-1-ylidene]-3,3-dimethylpiperidine-1-carboxylate] | 1 |  |
| 16.1 | 60 |  |  | CCOC(=O)N1CC/C(=C\C#Cc2cc(F)cc(C#N)c2)C(C)(C)C1 [Example 32, ethyl (4E)-4-[3-(3-cyano-5-fluorophenyl)prop-2-yn-1-ylidene]-3,3-dimethylpiperidine-1-carboxylate] |  |  |
| 0.99 |  | 2.7 | 107 | CC1(C)CN(C(=O)c2cccc(Cl)c2)CC/C1=C\C#Cc1cccc(Cl)c1 [Example 34, (3-chlorophenyl){(4E)-4-[3-(3-chlorophenyl)prop-2-yn-1-ylidene]-3,3-dimethylpiperidin-1-yl}methanone] |  | 10 |
| 1.29 | 18.2 |  |  | COC(=O)N1CC/C(=C\C#Cc2cccc(Cl)c2)C(C)(C)C1 [Example 40, methyl (4E)-4-[3-(3-chlorophenyl)prop-2-yn-1-ylidene]-3,3-dimethylpiperidine-1-carboxylate] | 3 |  |
| 2.44 | 2.02 |  |  | CCOC(=O)N1CC/C(=C\C#Cc2cccc(C)n2)C1(C)C [Example 48, ethyl (3E)-2,2-dimethyl-3-[3-(6-methylpyridin-2-yl)prop-2-yn-1-ylidene]pyrrolidine-1-carboxylate] | 1 |  |
| 16.3 | 31.6 |  |  | CCOC(=O)N1CC/C(=C\C#Cc2cc(Cl)ccn2)C1(C)C [Example 91, ethyl (3E)-3-[3-(4-chloropyridin-2-yl)prop-2-yn-1-ylidene]-2,2-dimethylpyrrolidine-1-carboxylate] |  |  |
| 11.2 | 66.3 |  |  | CCOC(=O)N1CC/C(=C\C#Cc2cccc(Cl)c2)C1(C)C [Example 101, ethyl (3E)-3-[3-(3-chlorophenyl)prop-2-yn-1-ylidene]-2,2-dimethylpyrrolidine-1-carboxylate] |  |  |
